Reference: ChEMBL document CHEMBL1201862, “PubChem BioAssay data set” (2004)
Active and inactive are the calls of the source.

Tests used:
[1] = A Cell Based Secondary Assay To Explore Cytotoxicity of Compounds that Sensitize Mycobacterium Tuberculosis to Beta-Lactam Antibiotics.; format: functional
[2] = molecular target: T1, Heat shock factor protein 1 (Mus musculus, UniProt P38532); assay: decrease of HSF1-responsive luciferase luminescence – cell-based, NIH3T3, dose retest, confirmation (AID 2382); format: functional;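 also: NIH3T3 fibroblasts with HSF1-driven luciferase reporter stressed by proteasome inhibitor MG132; luminescence from HSF1-driven luciferase expression after 8 hours of MG132 stress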
T1 sequence (P38532 whole entry): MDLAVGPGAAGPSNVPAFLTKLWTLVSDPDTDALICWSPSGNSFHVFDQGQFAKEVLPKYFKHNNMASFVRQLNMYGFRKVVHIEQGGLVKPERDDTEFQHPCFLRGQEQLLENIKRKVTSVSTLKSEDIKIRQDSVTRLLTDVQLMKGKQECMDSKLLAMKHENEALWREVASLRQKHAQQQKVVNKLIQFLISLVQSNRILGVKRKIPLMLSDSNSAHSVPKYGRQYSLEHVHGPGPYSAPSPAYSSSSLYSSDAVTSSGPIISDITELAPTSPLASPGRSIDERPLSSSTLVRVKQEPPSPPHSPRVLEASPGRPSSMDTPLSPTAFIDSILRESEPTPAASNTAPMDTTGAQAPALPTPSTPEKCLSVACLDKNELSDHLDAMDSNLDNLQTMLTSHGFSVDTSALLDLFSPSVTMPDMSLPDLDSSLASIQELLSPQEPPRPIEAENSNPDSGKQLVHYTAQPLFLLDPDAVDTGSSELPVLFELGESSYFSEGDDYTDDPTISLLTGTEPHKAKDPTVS

[3] = Luminescence-based counterscreen assay for KLF5 inhibitors: dose response cell-based high throughput screening assay to identify cytotoxic compounds using the IEC-6 intestinal epithelial cell line. [Related pubchem assays: 1700 (Primary screen.), 1834 (Confirmation screen.), 1858 (Summary AID.), 1905 (Counterscreen.)]; format: functional
[4] = microbe, parasite or virus in culture; format: functional; conditions: Mycobacterium tuberculosis
[5] = HEK-293T cell viability reduction – luminescence, B-cell screen hits, cytotoxicity control for BCR NF-kB inhibitor project, dose response (AID 489021); format: functional, cell-based;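 also: HEK-293T cells carrying an NF-kB luciferase reporter; cells exposed to compound for about 14 hours before viability readout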
HEK293 = assay: EBV LMP1 TES2 canonical NF-kB signalling blockers – cell-based, HEK293, luciferase, cherry-pick, dose response (AID 588343); format: functional; conditions: Homo sapiens
Paired box protein Pax-8 = Paired box protein Pax-8 (Homo sapiens, UniProt Q06710); assay: PAX8 transcriptional activity inhibition in RMG-I – RMG-I cells, luciferase, cherry-pick, dose response (AID 687027); format: functional, cell-based;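 also: luciferase reporter driven by Pax8 target thyroperoxidase promoter measured by SteadyGlo luminescence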
[6] = CMV-driven luciferase expression suppression in HEK293 – cell-based, luminescence, dry powder, counter-screen for Pax8 inhibitor project, dose response (AID 743020); format: functional
[7] = A549 cell cytotoxicity, dose response, cytotoxicity control, plate reader, cherry-pick, antagonist series (AID 743412); format: functional, cell-based
[8] = toxicity toward HepG2 liver cells – cell-based, plate reader, cherry-pick, antagonist series, cytotoxicity control, dose response (AID 743416); format: functional
[9] = blockers of bursicon-stimulated LGR2 cAMP reporter – cell-based, HEK293, CRE-luciferase reporter, cherry pick, set 2, dose response (AID 743343); format: functional;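 also: transfected cells were stimulated with diluted bursicon conditioned medium after compound addition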
[10] = general cell-killing toxicity readout – plate reader, dry powder samples, cytotoxicity control for PAX8 inhibitor project, dose response (AID 743021); format: functional, cell-based
[11] = blockade of melanocortin 4 receptor signaling – cell-based, plate reader, cherry pick, counter-screen for LGR2 antagonist project, dose response (AID 743444); format: functional;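 also: transfected HEK 293 cells stimulated with alpha-MSH peptide; potency of inhibitors of the alpha-MSH evoked signal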
[12] = viability loss in HEK293 cells – cell-based, plate reader, cherry-picked samples, cytotoxicity control, dose response (AID 743446); format: functional
[13] = molecular target: T2, Apoptotic protease-activating factor 1 (Homo sapiens, UniProt O14727); format: functional
T2 sequence (O14727 whole entry): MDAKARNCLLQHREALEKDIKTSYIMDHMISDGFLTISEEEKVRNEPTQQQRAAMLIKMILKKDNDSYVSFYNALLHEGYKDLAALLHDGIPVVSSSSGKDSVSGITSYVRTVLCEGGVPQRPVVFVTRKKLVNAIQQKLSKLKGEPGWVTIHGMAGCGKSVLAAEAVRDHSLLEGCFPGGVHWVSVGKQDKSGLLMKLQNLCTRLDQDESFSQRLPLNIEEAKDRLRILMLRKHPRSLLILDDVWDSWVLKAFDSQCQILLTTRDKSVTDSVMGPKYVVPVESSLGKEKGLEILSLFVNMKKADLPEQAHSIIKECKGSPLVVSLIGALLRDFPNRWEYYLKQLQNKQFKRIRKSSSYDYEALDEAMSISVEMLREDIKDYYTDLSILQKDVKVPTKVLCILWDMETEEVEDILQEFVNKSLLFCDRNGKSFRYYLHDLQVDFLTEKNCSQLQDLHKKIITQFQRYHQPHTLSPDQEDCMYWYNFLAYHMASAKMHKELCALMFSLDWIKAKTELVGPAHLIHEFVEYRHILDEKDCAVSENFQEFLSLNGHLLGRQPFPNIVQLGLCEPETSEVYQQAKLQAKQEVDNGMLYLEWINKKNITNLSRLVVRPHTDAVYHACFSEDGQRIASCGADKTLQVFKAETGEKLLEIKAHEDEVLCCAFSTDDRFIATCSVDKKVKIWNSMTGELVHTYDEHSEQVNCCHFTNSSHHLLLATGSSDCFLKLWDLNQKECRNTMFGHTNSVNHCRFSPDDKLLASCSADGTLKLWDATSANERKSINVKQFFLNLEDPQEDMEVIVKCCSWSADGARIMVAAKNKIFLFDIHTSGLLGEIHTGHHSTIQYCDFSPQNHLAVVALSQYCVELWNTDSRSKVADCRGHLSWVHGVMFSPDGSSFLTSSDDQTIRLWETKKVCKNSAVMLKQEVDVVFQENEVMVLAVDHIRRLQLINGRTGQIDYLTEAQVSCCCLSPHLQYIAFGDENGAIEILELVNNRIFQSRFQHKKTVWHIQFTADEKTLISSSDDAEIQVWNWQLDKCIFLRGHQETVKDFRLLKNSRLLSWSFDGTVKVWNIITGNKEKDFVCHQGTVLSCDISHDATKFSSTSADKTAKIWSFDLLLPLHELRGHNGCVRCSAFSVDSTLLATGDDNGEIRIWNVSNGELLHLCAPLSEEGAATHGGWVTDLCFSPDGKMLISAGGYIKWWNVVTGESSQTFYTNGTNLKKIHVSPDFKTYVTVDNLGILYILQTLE

[14] = HPDE-C7 pancreatic duct cell viability loss – fluorescence, HTS (AID 430); format: functional, cell-based; conditions: Homo sapiens
[15] = viability loss of HPDE-C7K cells – cell-based, fluorescence, HTS, primary screen (AID 431); format: functional; conditions: Homo sapiens
[16] = molecular target: T3, Neuropeptide Y receptor type 2 (Homo sapiens, UniProt P49146); format: functional, cell-based;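 also: HEK293 cells expressing the receptor and a CNG channel; stimulus was NPY near EC95 followed by isoproterenol to raise cAMP; antagonist potency measured as restoring cAMP signal that NPY suppresses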
T3 sequence (P49146 whole entry): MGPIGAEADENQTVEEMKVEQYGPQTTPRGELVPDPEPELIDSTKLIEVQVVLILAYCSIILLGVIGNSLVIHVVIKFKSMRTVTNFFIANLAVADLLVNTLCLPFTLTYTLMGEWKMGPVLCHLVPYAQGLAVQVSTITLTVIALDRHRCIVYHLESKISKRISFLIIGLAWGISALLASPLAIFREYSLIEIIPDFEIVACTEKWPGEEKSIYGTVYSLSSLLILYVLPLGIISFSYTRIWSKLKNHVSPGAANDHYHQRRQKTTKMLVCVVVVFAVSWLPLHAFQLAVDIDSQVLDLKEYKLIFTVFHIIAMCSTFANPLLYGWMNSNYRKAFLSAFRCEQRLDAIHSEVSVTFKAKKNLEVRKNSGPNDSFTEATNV

[17] = molecular target: T4, Ubiquitin-conjugating enzyme E2 N (Homo sapiens, UniProt P61088); format: functional;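 also: Dose-response confirmation in a TR-FRET assay detecting UBC13-driven polyubiquitin chain formation, inhibition measured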
T4 sequence (P61088 whole entry): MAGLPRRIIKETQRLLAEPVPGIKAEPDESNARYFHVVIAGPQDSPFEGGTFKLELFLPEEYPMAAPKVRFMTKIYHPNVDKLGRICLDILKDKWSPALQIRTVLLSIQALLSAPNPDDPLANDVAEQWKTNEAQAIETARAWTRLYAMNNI

[18] = molecular target: Heat shock protein HSP 90-alpha (Homo sapiens, UniProt P07900); format: functional, organism-based
[19] = glucagon-like peptide-1 release potency in STC-1, concentration-response, half-maximal inhibitory concentration in the STC-1 line (AID 1117345); format: functional, cell-based
[20] = Potency on glucagon-like peptide 1 release, dose-response in NCI-H716 cell line, half maximal inhibitory concentration (AID 1117344); format: functional, cell-based
[21] = molecular target: T5, Aryl hydrocarbon receptor (Homo sapiens, UniProt P35869); conditions: Potency;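 also: confirmatory quantitative high-throughput screen measuring activation of the AhR signaling pathway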
T5 sequence (P35869 whole entry): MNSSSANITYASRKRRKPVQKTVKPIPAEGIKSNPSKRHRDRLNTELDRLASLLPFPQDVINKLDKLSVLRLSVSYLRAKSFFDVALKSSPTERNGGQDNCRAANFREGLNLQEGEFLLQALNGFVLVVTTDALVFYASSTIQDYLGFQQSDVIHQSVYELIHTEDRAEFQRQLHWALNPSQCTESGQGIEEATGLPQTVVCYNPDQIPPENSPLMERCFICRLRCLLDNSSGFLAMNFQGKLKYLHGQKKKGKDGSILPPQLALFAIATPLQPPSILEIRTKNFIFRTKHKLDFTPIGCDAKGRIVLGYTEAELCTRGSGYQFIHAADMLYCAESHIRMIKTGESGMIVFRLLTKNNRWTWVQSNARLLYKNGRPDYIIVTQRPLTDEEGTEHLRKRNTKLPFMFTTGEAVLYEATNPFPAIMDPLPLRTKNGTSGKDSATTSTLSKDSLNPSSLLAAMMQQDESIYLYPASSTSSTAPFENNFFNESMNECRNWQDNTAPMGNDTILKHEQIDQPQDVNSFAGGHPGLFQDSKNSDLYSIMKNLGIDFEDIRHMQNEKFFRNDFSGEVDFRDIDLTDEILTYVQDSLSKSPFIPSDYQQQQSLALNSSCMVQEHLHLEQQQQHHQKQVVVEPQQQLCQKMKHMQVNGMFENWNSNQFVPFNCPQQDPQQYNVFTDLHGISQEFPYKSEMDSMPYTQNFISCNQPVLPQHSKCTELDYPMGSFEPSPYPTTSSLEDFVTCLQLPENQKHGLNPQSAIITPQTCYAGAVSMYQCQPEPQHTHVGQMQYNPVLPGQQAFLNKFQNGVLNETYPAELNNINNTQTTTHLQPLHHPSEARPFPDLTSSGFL

Sequence of Paired box protein Pax-8 (Q06710 whole entry): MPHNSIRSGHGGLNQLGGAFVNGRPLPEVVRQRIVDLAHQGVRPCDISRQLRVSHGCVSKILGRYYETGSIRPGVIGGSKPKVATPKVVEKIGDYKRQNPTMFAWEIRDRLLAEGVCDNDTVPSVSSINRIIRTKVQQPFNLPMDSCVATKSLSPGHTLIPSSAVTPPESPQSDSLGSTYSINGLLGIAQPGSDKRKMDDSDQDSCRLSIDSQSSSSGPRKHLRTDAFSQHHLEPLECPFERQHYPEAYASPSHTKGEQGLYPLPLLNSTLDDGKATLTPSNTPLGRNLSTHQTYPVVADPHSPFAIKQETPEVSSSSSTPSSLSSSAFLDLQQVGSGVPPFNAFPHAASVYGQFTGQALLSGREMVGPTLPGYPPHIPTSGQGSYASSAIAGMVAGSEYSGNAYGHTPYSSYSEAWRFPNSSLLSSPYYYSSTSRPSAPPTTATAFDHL

Question: Which CC50 [1] does the source give for CC(C)CC(=O)N1CCN(c2ccc([N+](=O)[O-])c(NCc3ccccc3)c2)CC1 here?
Answer: > 40 µM (active)

Question: With COc1ccc(OCc2cccc(C(=O)Nn3cc([N+](=O)[O-])cn3)c2)cc1 as the compound, how does the EC50 [2] read?
Answer: 4.92 µM (active)

Question: And the IC50 [3]?
Answer: > 39.8 µM (not active)

Question: What about the CC50 [4] of the same compound?
Answer: > 40 µM (active)

Question: And the IC50 [5]?
Answer: > 80 µM (inactive)

Question: And the AC50 (HEK293)?
Answer: 0.709 µM (active)

Question: What about the AC50 (Paired box protein Pax-8) of the same compound?
Answer: 1.13 µM (active)

Question: What about the AC50 [6] of the same compound?
Answer: 21 µM (active)

Question: What about the AC50 [7] of the same compound?
Answer: > 52 µM (inactive)

Question: And the AC50 [8]?
Answer: 34.1 µM (active)

Question: And the AC50 [9]?
Answer: 0.407 µM (active)

Question: What about the AC50 [10] of the same compound?
Answer: 10.1 µM (active)

Question: What about the AC50 [11] of the same compound?
Answer: 0.462 µM (active)

Question: What about the AC50 [12] of the same compound?
Answer: > 52 µM (inactive)

Question: For Cc1nn(-c2ccccc2)c(O)c1/C=N/NC(=O)c1cccc([N+](=O)[O-])c1, which CC50 [1] is on record?
Answer: 7.57 µM (active)

Question: What about the IC50 [13] of the same compound?
Answer: 13.2 µM (active)

Question: For Clc1ccc(COC(Cn2ccnc2)c2ccc(Cl)cc2Cl)cc1 (centres undefined) [ECONAZOLE NITRATE], which EC50 [14] is on record?
Answer: 15.9 µM (active)

Question: And the EC50 [15]?
Answer: 15.4 µM (active)

Question: What about the IC50 [16] of the same compound?
Answer: 8.02 µM (active)

Question: What about the IC50 [17] of the same compound?
Answer: > 20 µM (inactive)

Question: What about the AC50 [18] of the same compound?
Answer: 0.267 µM (active)

Question: What about the IC50 [19] of the same compound?
Answer: 4.29 µM (active)

Question: And the IC50 [20]?
Answer: 25.6 µM (inactive)

Question: And the AC50 [21]?
Answer: 56.2 µM (inconclusive)
